Measured values taken from patent US9156856B2, “Apoptosis-inducing agents for the treatment of cancer and immune and autoimmune diseases” (AbbVie Inc., priority 2009, dated 2015).

Target: Bcl-2 (Homo sapiens (Human), UniProt P10415)
Experiment: Time Resolved-Fluorescence Resonance Energy Transfer (TR-FRET) Bcl-2 binding assay with F-Bak peptide probe
Conditions: GST-Bcl-2 1 nM, F-Bak peptide probe 100 nM, Tb-anti-GST antibody 1 nM; Ki by Wang's equation
Procedure: Determination of the utility of compounds having Formula (I) as binders to and inhibitors of anti-apoptotic Bcl-2 proteins was performed using the Time Resolved-Fluorescence Resonance Energy Transfer (TR-FRET) Assay. Tb-anti-GST antibody was purchased from Invitrogen (Catalog No. PV4216).
Representative compounds were serially diluted in dimethyl sulfoxide (DMSO) starting at 50 μM (2× starting concentration; 10% DMSO) and 10 μL were transferred into a 384-well plate. The samples are then mixed on a shaker for 1 minute and incubated for an additional 3 hours at room temperature. For each assay, the probe/antibody and protein/probe/antibody were included on each assay plate as negative and positive controls, respectively. Fluorescence was measured on the ENVISION plate reader (Perkin Elmer) using a 340/35 nm excitation filter and 520/525 (F-Bak peptide) and 495/510 nm (Tb-labeled […] antibody) emission filters Inhibition constants (Ki) are shown in TABLE 2 below and were determined using Wang's equation (Wang Z.-X. An Exact Mathematical Expression For Describing Competitive Binding Of Two Different Ligands To A Protein Molecule. FEBS Lett. 1995, 360:111-4).
The inhibition constant (Ki) is the dissociation constant of an enzyme-inhibitor complex or a protein/small molecule complex, wherein the small molecule is inhibiting binding of one protein to another protein. So a large K, value indicates a low binding affinity and a small Ki value indicates a high binding affinity.
The compounds are therefore expected to have utility in treatment of diseases during which anti-apoptotic Bcl-2 protein is expressed.

Bcl-2, sequence (P10415 whole entry): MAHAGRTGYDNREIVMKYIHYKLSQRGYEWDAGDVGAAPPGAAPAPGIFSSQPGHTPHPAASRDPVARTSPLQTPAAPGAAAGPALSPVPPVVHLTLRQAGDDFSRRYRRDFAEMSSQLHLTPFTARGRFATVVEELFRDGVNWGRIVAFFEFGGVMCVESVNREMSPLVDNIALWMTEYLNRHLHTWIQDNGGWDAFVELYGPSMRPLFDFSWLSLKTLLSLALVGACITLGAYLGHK

| SMILES | Ki [nM] |
| --- | --- |
| CN(CCSc1ccccc1)C1CCN(S(=O)(=O)NC(=O)c2ccc(N3CCN(Cc4ccccc4-c4ccc(Cl)cc4)CC3)cc2)CC1 [Example 6, 4-{4-[(4′-chloro-1,1′-biphenyl-2-yl)methyl]piperazin-1-yl}-N-[(4-{methyl[2-(phenylthio)ethyl]amino}piperidin-1-yl)sulfonyl]benzamide] | 704 |
| CN(C)CC[C@H](CSc1ccccc1)Nc1sc(S(=O)(=O)NC(=O)c2ccc(N3CCC(=Cc4ccccc4C(F)(F)F)CC3)cc2)cc1[N+](=O)[O-] [Example 36, N-{[5-({(1R)-3-(dimethylamino)-1-[(phenylthio)methyl]propyl}amino)-4-nitrothien-2-yl]sulfonyl}-4-{4-[2-(trifluoromethyl)benzylidene]piperidin-1-yl}benzamide] | 294 |
| O=C(NS(=O)(=O)c1ccc(-c2ccno2)o1)c1ccc(N2CCN(Cc3ccccc3-c3ccc(Cl)cc3)CC2)cc1 [Example 31, 4-{4-[(4′-chloro-1,1′-biphenyl-2-yl)methyl]piperazin-1-yl}-N-[(5-isoxazol-5-yl-2-furyl)sulfonyl]benzamide] | 139 |
| O=C(NS(=O)(=O)c1cc([N+](=O)[O-])c(N2CCCCC2)s1)c1ccc(N2CCN(Cc3ccccc3-c3ccc(Cl)cc3)CC2)cc1 [Example 30, 4-{4-[(4′-chloro-1,1′-biphenyl-2-yl)methyl]piperazin-1-yl}-N-[(4-nitro-5-piperidin-1-ylthien-2-yl)sulfonyl]benzamide] | 269 |
| CC(=O)/N=c1\sc(S(=O)(=O)NC(=O)c2ccc(N3CCN(Cc4ccccc4-c4ccc(Cl)cc4)CC3)cc2)nn1C [Example 10, N-{[(5Z)-5-(acetylimino)-4-methyl-4,5-dihydro-1,3,4-thiadiazol-2-yl]sulfonyl}-4-{4-[(4′-chloro-1,1′-biphenyl-2-yl)methyl]piperazin-1-yl}benzamide] | 743 |
| O=C(NS(=O)(=O)N1CCOCC1)c1ccc(N2CCN(Cc3ccccc3-c3ccc(Cl)cc3)CC2)cc1 [Example 14, 4-{4-[(4′-chloro-1,1′-biphenyl-2-yl)methyl]piperazin-1-yl}-N-(morpholin-4-ylsulfonyl)benzamide] | 409 |
| Cc1cc(C)n2nc(S(=O)(=O)NC(=O)c3ccc(N4CCN(Cc5ccccc5-c5ccc(Cl)cc5)CC4)cc3)nc2n1 [Example 20, 4-{4-[(4′-chloro-1,1′-biphenyl-2-yl)methyl]piperazin-1-yl}-N-[(5,7-dimethyl[1,2,4]triazolo[1,5-a]pyrimidin-2-yl)sulfonyl]benzamide] | 48.1 |
| CN(C)CC[C@H](CSc1ccccc1)Nc1sc(S(=O)(=O)NC(=O)c2ccc(N3CCN(CC=C(c4ccccc4)c4ccccc4)CC3)cc2)cc1[N+](=O)[O-] [Example 3, N-{[5-({(1R)-3-(dimethylamino)-1-[(phenylthio)methyl]propyl}amino)-4-nitrothien-2-yl]sulfonyl}-4-[4-(3,3-diphenylprop-2-enyl)piperazin-1-yl]benzamide] | 51.7 |
| CC1(C)CCC(CN2CCN(c3ccc(C(=O)NS(=O)(=O)c4cc([N+](=O)[O-])c(NCCCN5CCOCC5)s4)c(Oc4ccc5[nH]ccc5c4)c3)CC2)=C(c2ccc(Cl)cc2)C1 [Example 35, 4-(4-{[2-(4-chlorophenyl)-4,4-dimethylcyclohex-1-en-1-yl]methyl}piperazin-1-yl)-2-(1H-indol-5-yloxy)-N-({5-[(3-morpholin-4-ylpropyl)amino]-4-nitrothien-2-yl}sulfonyl)benzamide] | 2.07 |
| COC1(CC2CCCCC2)CCN(c2ccc(C(=O)NS(=O)(=O)c3cc([N+](=O)[O-])c(N[C@H](CCN(C)C)CSc4ccccc4)s3)cc2)CC1 [Example 1, 4-[4-(cyclohexylmethyl)-4-methoxypiperidin-1-yl]-N-{[5-({(1R)-3-(dimethylamino)-1-[(phenylthio)methyl]propyl}amino)-4-nitrothien-2-yl]sulfonyl}benzamide] | 51.4 |
| CCC(CC)NC(=O)c1nnc(S(=O)(=O)NC(=O)c2ccc(N3CCN(Cc4ccccc4-c4ccc(Cl)cc4)CC3)cc2)s1 [Example 28, 5-{[(4-{4-[(4′-chloro-1,1′-biphenyl-2-yl)methyl]piperazin-1-yl}benzoyl)amino]sulfonyl}-N-(1-ethylpropyl)-1,3,4-thiadiazole-2-carboxamide] | 417 |
| Cc1nc(OC[C@@H]2CN(C(=O)OC(C)(C)C)CCO2)sc1S(=O)(=O)NC(=O)c1ccc(N2CCN(CC3=C(c4ccc(Cl)cc4)CC(C)(C)CC3)CC2)cc1Oc1cccc2[nH]ncc12 [Example 47, (S)-tert-butyl 2-((5-(N-(2-(1H-indazol-4-yloxy)-4-(4-((2-(4-chlorophenyl)-4,4-dimethylcyclohex-1-enyl)methyl)piperazin-1-yl)benzoyl)sulfamoyl)-4-methylthiazol-2-yloxy)methyl)morpholine-4-carboxylate] | 20.4 |
| O=C(NS(=O)(=O)c1cccs1)c1ccc(N2CCN(Cc3ccccc3-c3ccc(Cl)cc3)CC2)cc1 [Example 19, 4-{4-[(4′-chloro-1,1′-biphenyl-2-yl)methyl]piperazin-1-yl}-N-(thien-2-ylsulfonyl)benz amide] | 234 |
| Cc1nsc(S(=O)(=O)NC(=O)c2ccc(N3CCN(Cc4ccccc4-c4ccc(Cl)cc4)CC3)cc2)c1Cl [Example 24, 4-{4-[(4′-chloro-1,1′-biphenyl-2-yl)methyl]piperazin-1-yl}-N-[(4-chloro-3-methylisothiazol-5-yl)sulfonyl]benzamide] | 342 |
| Cc1nc(OCC2(F)CCOCC2)sc1S(=O)(=O)NC(=O)c1ccc(N2CCN(CC3=C(c4ccc(Cl)cc4)CC(C)(C)CC3)CC2)cc1Oc1cccc2[nH]ncc12 [Example 48, 2-(1H-indazol-4-yloxy)-4-(4-((2-(4-chlorophenyl)-4,4-dimethylcyclohex-1-enyl)methyl)piperazin-1-yl)-N-(2-((4-fluorotetrahydro-2H-pyran-4-yl)methoxy)-4-methylthiazol-5-ylsulfonyl)benzamide] | 1.64 |
| Cc1nc(OCC2(F)CCOCC2)sc1S(=O)(=O)NC(=O)c1ccc(N2CCN(CC3=C(c4ccc(Cl)cc4)CC(C)(C)CC3)CC2)cc1Oc1cccc2[nH]cnc12 [Example 46, 2-(1H-benzimidazol-4-yloxy)-4-(4-{[2-(4-chlorophenyl)-4,4-dimethylcyclohex-1-en-1-yl]methyl}piperazin-1-yl)-N-({2-[(4-fluorotetrahydro-2H-pyran-4-yl)methoxy]-4-methyl-1,3-thiazol-5-yl}sulfonyl)benzamide] | 1.75 |
| Cc1cc(-c2oncc2S(=O)(=O)NC(=O)c2ccc(N3CCN(Cc4ccccc4-c4ccc(Cl)cc4)CC3)cc2)n(C)n1 [Example 23, 4-{4-[(4′-chloro-1,1′-biphenyl-2-yl)methyl]piperazin-1-yl}-N-{[5-(1,3-dimethyl-1H-pyrazol-5-yl)isoxazol-4-yl]sulfonyl}benzamide] | 447 |
| O=C(NS(=O)(=O)c1nc2ccccc2s1)c1ccc(N2CCN(Cc3ccccc3-c3ccc(Cl)cc3)CC2)cc1 [Example 18, N-(1,3-benzothiazol-2-ylsulfonyl)-4-{4-[(4′-chloro-1,1′-biphenyl-2-yl)methyl]piperazin-1-yl}benzamide] | 129 |
| CC1(C)CCC(CN2CCN(c3ccc(C(=O)NS(=O)(=O)c4cc([N+](=O)[O-])c(NCCCN5CCCC5)s4)c(Oc4ccc5[nH]ccc5c4)c3)CC2)=C(c2ccc(Cl)cc2)C1 [Example 33, 4-(4-{[2-(4-chlorophenyl)-4,4-dimethylcyclohex-1-en-1-yl]methyl}piperazin-1-yl)-2-(1H-indol-5-yloxy)-N-({4-nitro-5-[(3-pyrrolidin-1-ylpropyl)amino]thien-2-yl}sulfonyl)benzamide] | 0.649 |
| Cc1nc(OCC2(F)CCOCC2)sc1S(=O)(=O)NC(=O)c1ccc(N2CCN(CC3=C(c4ccc(Cl)cc4)CC(C)(C)CC3)CC2)cc1Oc1cnc2[nH]ccc2c1 [Example 45, 4-(4-{[2-(4-chlorophenyl)-4,4-dimethylcyclohex-1-en-1-yl]methyl}piperazin-1-yl)-N-({2-[(4-fluorotetrahydro-2H-pyran-4-yl)methoxy]-4-methyl-1,3-thiazol-5-yl}sulfonyl)-2-(1H-pyrrolo[2,3-b]pyridin-5-yloxy)benzamide] | 6.73 |
| Cc1c(S(=O)(=O)NC(=O)c2ccc(N3CCN(Cc4ccccc4-c4ccc(Cl)cc4)CC3)cc2)sc2ccc(Br)cc12 [Example 25, N-[(5-bromo-3-methyl-1-benzothien-2-yl)sulfonyl]-4-{4-[(4′-chloro-1,1′-biphenyl-2-yl)methyl]piperazin-1-yl}benzamide] | 372 |
| CC(C)N(C)CC[C@H](CSc1ccccc1)Nc1sc(S(=O)(=O)NC(=O)c2ccc(N3CCN(Cc4ccccc4-c4ccc(Cl)cc4)CC3)cc2)cc1[N+](=O)[O-] [Example 7, 4-{4-[(4′-chloro-1,1′-biphenyl-2-yl)methyl]piperazin-1-yl}-N-{[5-({(1R)-3-[isopropyl(methyl)amino]-1-[(phenylthio)methyl]propyl}amino)-4-nitrothien-2-yl]sulfonyl}benzamide] | 0.084 |
